Results published in patent publication US20080120731A1, “Transgenic Animal Models for Neurodevelopmental Disorders” (priority 2004, published 2008).
Read-outs that look alike come from different tables or passages of the source.

Legend:
APH1BC ^−/− mice [1] = test: Open field locomotor activity (total distance traveled) after apomorphine; settings: 2 μg/kg subcutaneously; for activity at 0.002 mg/kg: Mus musculus, sc, 10 min
APH1BC^−/− mice = test: Prepulse inhibition (PPI) of acoustic startle after antipsychotic injection; type: in vivo
Description: Schizophrenia is a complex disease characterized by delusions and hallucinations (so-called positive symptoms), affective and social disturbances (negative symptoms), but also by cognitive deficits. Disturbed information processing, and more specifically an impairment in the filtering of irrelevant stimuli, is thought to contribute to the disease phenotype by causing “sensory flooding”, which may lead to cognitive fragmentation. A psychophysical measure of (pre-attentive) information filtering is “prepulse inhibition” (PPI). […] The strength of this reflex response is read out by recording the amplitude of the eye-blink response that is part of the startling reaction. This way, the amplitude of the eye-blink response is a measure of the efficiency of the coupling of the sensory stimulus to the motor reflex programme. If the startle stimulus is preceded by a weak, non-startling “prepulse stimulus”, e.g. a tone just above background noise levels, the amplitude of the eye-blink response to the startle stimulus is strongly diminished in normal individuals. […] The “% prepulse inhibition (PPI)” is quantified as: 100−((A2/A1)*100), with A1 being the amplitude of the response to the startle stimulus and A2 the amplitude of the response to the same startle stimulus preceded by the prepulse stimulus. […] In rodents the motor reaction to a startle stimulus is quantified by placing mice into a restraining tube in a sound-proof cabin mounted onto a pressure sensitive platform. Upon presentation of the startling sound, the mouse flinches and the pressure it exerts via its limbs is recorded quantitatively as a ballistogram that can be analysed using appropriate software. This way, the effect of a preceding prepulse on the flinching reaction to a startle stimulus can be calculated.
For all trials, background noise was 70 db, the prepulse preceded the startle stimulus by 100 ms, the prepulse stimuli lasted 20 ms and the startle stimuli lasted 60 ms. […] For each of the four different combinations of prepulse and startle stimulus, the % PPI was calculated using the formula described above. […]

APH1BC ^−/− mice [2] = test: Locomotor activity (infrared beam breaks in activity monitor) after amphetamine; settings: 3 μg/kg intraparietally

CN1CCc2cccc3c2[C@H]1Cc1ccc(O)c(O)c1-3 [apomorphine]
reaction of APH1BC ^−/− mice versus wild-type littermates (APH1BC ^−/− mice [1]; p=0,045 two-tailed student's t test): reacted more strongly
activity at 0.002 mg/kg (APH1BC ^−/− mice [1]; read-out: residual activity (distance APO/distance placebo)*100%, APH1BC −/− mice, 10 min open field): 27%
activity at 0.002 mg/kg (APH1BC ^−/− mice [1]; read-out: residual activity (distance APO/distance placebo)*100%, wild type mice, 10 min open field): 50%
effect on locomotion (total distance traveled in open field) (APH1BC ^−/− mice [1]; […], 10 min open field, p<0,001 for treatment effect): strong inhibition of locomotion

O=C(CCCN1CCC(O)(c2ccc(Cl)cc2)CC1)c1ccc(F)cc1 [haloperidol, Haloperidol]
PPI in APH1BC^−/− mice relative to wild type levels (APH1BC^−/− mice; APH1BC^−/− mice, pp 74/p110 and pp 78/p110 trials, 1 μg/kg injected intra-parietally, PPI measured 45 min after injection): essentially normalized
effects on (improvements of) PPI in the p100 trials (APH1BC^−/− mice; p100 trials, 1 μg/kg intra-parietally, 45 min after injection): small but insignificant effects
wild type PPI levels compared to placebo-injected animals (APH1BC^−/− mice; wild type littermates, pp74/p110 and pp 78/p110 trials, 1 μg/kg intra-parietally, 45 min after injection): significantly elevated

CC(N)Cc1ccccc1 (stereo not shown) [amphetamine, Amphetamine]
reaction of APH1BC ^−/− mice versus wild-type littermates (rise in activity, maximal activity, total activity over two hours) (APH1BC ^−/− mice [2]; p=0,06 for genotype effect): reacted more strongly
time of peak locomotor activity after injection (APH1BC ^−/− mice [2]; […]): 35 to 40 min
locomotor activity after drug administration (APH1BC ^−/− mice [2]; […], monitored 2 h after injection): rose strongly and continuously
